Measured values taken from US9017646B2, “Process of evaluating blood-brain barrier permeability of stroke rat by using fluorescent substance” (Institute of Nuclear Energy Research, Atomic Energy Council, priority 2012, dated 2015).

System: blood-brain barrier of stroke rat
Test: Blood-brain barrier permeability of stroke rat (middle cerebral artery occlusion model) by Evans blue dye, optical image and IVIS 100 fluorescence imaging of the whole brain
Format: in vivo, SD (Sprague Dawley) rat
Settings: for presence of blue dye in brain tissue (optical image, FIG. 2): 30 minutes distribution, transcardial perfusion
Source text: FIG. 1 is a schematic view of an evaluation process of the present invention. As shown, the invention is a process of evaluating the blood-brain barrier permeability of a stroke rat by using fluorescent substance. The process of the invention uses Evans blue dye having spontaneous fluorescence properties, in combination with the use of a new non-invasive in vivo imaging system (IVIS), to obtain fluorescent signals so as to assess the change in the blood-brain barrier permeability of rodents after a cerebral artery stroke model surgery. In operation, an Evans blue dye 11 is injected into a stroke rat 1 of middle cerebral artery occlusion model. A non-invasive in vivo imaging system 12 is used to detect the fluorescence distribution of the whole brain, and obtain images combined by the fluorescence images and optical images for the whole brain tissue. Thereby, the change in the blood-brain barrier permeability of the stroke rat can be completely realized.
FIG. 2 is an optical image of the whole brain tissue after the injection of Evans blue dye according to the invention. FIG. 3 is an integrated image combined the fluorescence images with the optical images by using an IVIS 100 system according to the invention. As shown, in a preferred embedment, the invention uses a SD (Sprague Dawley) rat as the stroke animal model subject to transient bilateral common carotid artery and right middle cerebral artery ligation. After the rat is anesthetized, the surgery procedure is described roughly as follows. The skull of the rat is opened by drilling in order to find the right middle cerebral artery. A 10-0 needle is used to take the right middle cerebral artery and rotate it 90 degrees. It is ensured that the blood cannot flow smoothly under the observation by a microscope. Then, both sides of the common carotid artery are subject to ligation for 90 minutes. After the stitches have been removed, wounds are sutured to allow the rat to be recovered.
Three groups are provided in the experiment, in which a sham group is a rat whose skull is opened without the bilateral common carotid artery and right middle cerebral artery ligation so as to exclude the impact caused by drilling the skull; a control group is the blank rat without any surgery; and a surgery group is a stroke rat whose skull is opened to perform the middle cerebral artery ligation.
Evans blue dye is dissolved in saline and injected intravenously into the rat via its tail 24 hours after surgery. After distribution for 30 minutes, the rat is anesthetized for transcardial perfusion in order to wash away the dye within the blood vessels. The IVIS 100 (Caliper) system is used to detect the fluorescence distribution of the whole brain tissue. The Evans blue dye can be excited by the light of 620 nanometer (nm) wavelengths to emit the light of 680 nm wavelength which can be detected by the IVIS 100 system and further converted into images (as shown in FIG. 3).

Cc1cc(-c2ccc(/N=N/c3ccc4c(S(=O)(=O)O)cc(S(=O)(=O)O)c(N)c4c3O)c(C)c2)ccc1/N=N/c1ccc2c(S(=O)(=O)O)cc(S(=O)(=O)O)c(N)c2c1O [Evans blue dye, Evans blue]
fluorescence of whole brain tissue (IVIS 100, excitation 620 nm, emission 680 nm, FIG. 3) (control group (blank rat without any surgery)): fluorescence is not obvious in the brain tissue | presence of blue dye in brain tissue (optical image, FIG. 2) (control group (blank rat without any surgery), dye i.v. via tail): no presence of the blue dye in the brain tissue | fluorescence of whole brain tissue (IVIS 100, excitation 620 nm, emission 680 nm, FIG. 3) (sham group (skull opened without ligation)): fluorescence is not obvious in the brain tissue | presence of blue dye in brain tissue (optical image, FIG. 2) (sham group (skull opened without ligation), dye i.v. via tail 24 hours after surgery): no presence of the blue dye in the brain tissue | fluorescence of whole brain tissue (IVIS 100, excitation 620 nm, emission 680 nm, FIG. 3) (surgery group (stroke rat), 24 hours after stroke surgery): fluorescence signals are detected in the right brain | presence of blue dye in brain tissue (optical image, FIG. 2) (surgery group (stroke rat), dye i.v. via tail 24 hours after surgery): leak into the interstitial cells of the right brain
